Test results published in US6552022B1, “Benzamide derivatives and their use as ApoB-100 secretion inhibitors” (SmithKline Beecham Corporation, priority 1998, dated 2003).

For `COc1cccc(C(=O)Nc2ccc(N3CCN(Cc4cccc(-c5nc(C)no5)c4)CC3)cc2)c1-c1ccc(C(C)C)cc1` [Example 74, 4′-Isopropyl-6-methoxy-biphenyl-2-carboxylic acid (4-(4-(3-(3-methyl-[1,2,4]oxadiazol-5-yl)-benzyl)-piperazine-1-yl)-phenyl)-amide], the melting point was 180 to 182 °C. Compound `N#Cc1cccc(CN2CCC(c3ccc(NC(=O)c4ccccc4-c4ccc(C(F)(F)F)cc4)cc3)CC2)c1` [Example 84, 4′-Trifluoromethyl-biphenyl-2-carboxylic Acid (4-[1-(3-cyano-benzyl)-piperidin-4-yl]-phenyl]-amide] has a melting point of 124 to 126 °C. In the case of `O=C(Nc1ccc(N2CCN(Cc3ccc(F)cc3)CC2)cc1)c1ccccc1-c1ccc(C(F)(F)F)cc1` [Example 52, 4′-Trifluoromethyl-biphenyl-2-carboxylic acid [4-[4-(4-fluoro-benzyl)-piperazin-1-yl]-phenyl]-amide], the melting point is reported as 198 to 200 °C. Work on `N#Cc1cccc(CN2CCN(c3ccc(NC(=O)c4ccccc4-c4ncc(-c5ccccc5)o4)cc3)CC2)c1` (hydrate or solvate) [Example 15, N-[4-[4-(3-Cyano-benzyl)-piperazin-1-yl]-phenyl]-2-(5-phenyl-oxazol-2-yl)-benzamide] yielded a melting point of 209 to 211 °C. For `N#Cc1cccc(CN2CCN(c3ccc(NC(=O)c4ccccc4-c4cccc(C(F)(F)F)c4)cc3)CC2)c1`, the melting point was 117 to 121 °C. `COc1ccc(-c2ccccc2C(=O)Nc2ccc(N3CCN(Cc4cccc(C#N)c4)CC3)cc2)cc1OC` showed a melting point of 116 to 120 °C. `CS(=O)(=O)N1CCN(c2ccc(NC(=O)c3ccccc3-c3ccc(C(F)(F)F)cc3)cc2)CC1` [Example 83, 4′-Trifluoromethyl-biphenyl-2-carboxylic Acid [4-(4-methanesulfonyl-piperazin-1-yl)-phenyl]-amide] gave a melting point of 254 to 256 °C. Work on `O=C(Nc1ccc(N2CCN(Cc3nccs3)CC2)cc1)c1ccccc1-c1ccc(C(F)(F)F)cc1` (hydrate or solvate) [Example 59, 4′-Trifluoromethyl-biphenyl-2-carboxylic acid [4-(4-thiazol-2-ylmethyl-piperazin-1-yl)-phenyl]-amide] yielded a melting point of 187 to 189 °C. For `CCOC(=O)CN1CCN(c2ccc(NC(=O)c3ccccc3-c3ccc(C(F)(F)F)cc3)cc2)CC1` [Example 42, 4′-Trifluoromethyl-biphenyl-2-carboxylic acid [4-(4-ethoxycarbonylmethyl-piperazin-1-yl)-phenyl)-amide], the melting point was 167 to 169 °C. Work on `COc1ccc(-c2ccc(C(C)C)cc2)c(C(=O)Nc2ccc(N3CCN(CC(N)=O)CC3)cc2)c1` [Example 38, 4′-Isopropyl-4-methoxy-biphenyl-2-carboxylic Acid [4-(4-carbamoylmethyl-piperazin-1-yl)-phenyl]-amide] yielded a melting point of 207 to 209 °C. `NC(=O)c1cccc(CN2CCN(c3ccc(NC(=O)c4ccccc4-c4ccc(C(F)(F)F)cc4)cc3)CC2)c1` [Example 50, 4′-Trifluoromethyl-biphenyl-2-carboxylic acid {4-[4-(3-carbamoyl-benzyl)-piperazin-1-yl]-phenyl)amide] showed a melting point of 199 to 201 °C. Compound `COc1cccc(C(=O)Nc2ccc(N3CCN(Cc4cccc(C#N)c4)CC3)cc2)c1-c1ccc(C(F)(F)F)cc1` [Example 8, 6-Methoxy-4′-trifluoromethyl-biphenyl-2-carboxylic acid [4-[4-(3-cyano-benzyl)-piperazin-1-yl]-phenyl]-amide] has a melting point of 215 to 217 °C. With `N#Cc1cccc(CN2CCN(c3ccc(NC(=O)c4ccccc4OCCC4CCCCC4)cc3)CC2)c1` [Example 32, N-[4-[4-(3-Cyano-benzyl)-piperazin-1-yl]-phenyl]-2-(2-cyclohexyl-ethoxy)-benzamide] the melting point was 119 to 121 °C. For `N#Cc1cccc(CN2CCN(c3ccc(NC(=O)c4ccccc4OCc4ccc(C(F)(F)F)cc4)cc3)CC2)c1` [Example 27, N-[4-[4-(3-Cyano-benzyl)-piperazin-1-yl]-phenyl]-2-(4-trifluoromethyl-benzyloxy)-benzamide], the melting point was 190 to 191 °C. In the case of `O=C(NCC(F)(F)F)c1cccc(CN2CCN(c3ccc(NC(=O)c4ccccc4-c4ccc(C(F)(F)F)cc4)cc3)CC2)c1` [Example 79, 4′-Trifluoromethyl-biphenyl-2-carboxylic Acid (4-{4-[3-(2,2,2-trifluoro-ethylcarbamoyl)-benzyl]-piperazin-1-yl}-phenyl)-amide], the melting point is reported as 205 to 207 °C. `O=C(Nc1ccc(N2CCN(Cc3ccccn3)CC2)cc1)c1ccccc1-c1ccc(C(F)(F)F)cc1` (hydrate or solvate) showed a melting point of 168 to 170 °C. `O=C(Nc1ccc(N2CCN(Cc3cccc(-c4noc(C(F)(F)F)n4)c3)CC2)cc1)c1ccccc1-c1ccc(C(F)(F)F)cc1` [Example 75, 4′-Trifluoromethyl-biphenyl-2-carboxylic acid (4-{4-[3-(5-trifluoromethyl-[1,2,4]oxadiazol-3-yl)-benzyl]-piperazin-1-yl}-phenyl)-amide] gave a melting point of 188 to 190 °C. `CC(=O)c1cccc(CN2CCN(c3ccc(NC(=O)c4ccccc4-c4ccc(C(F)(F)F)cc4)cc3)CC2)c1` [Example 66, 4′-Trifluoromethyl-biphenyl-2-carboxylic acid [4-(4-(3-acetyl-benzyl)-piperazin-1-yl)-phenyl]-amide] showed a melting point of 181 to 183 °C. With `O=C(Nc1ccc(N2CCN(Cc3ccc4c(c3)OCO4)CC2)cc1)c1ccccc1-c1ccc(C(F)(F)F)cc1` [Example 48, 4′-Trifluoromethyl-biphenyl-2-carboxylic acid [4-(4-(3,4-methylenedioxy-benzyl)-piperazin-1-yl)-phenyl]-amide] the melting point was 189 to 191 °C. With `O=C(Nc1ccc(N2CCN(Cc3cccs3)CC2)cc1)c1ccccc1-c1ccc(C(F)(F)F)cc1` [Example 70, 4′-Trifluoromethyl-biphenyl-2-carboxylic acid [4-(4-thiophen-2-ylmethyl-piperazin-1-yl)-phenyl]-amide] the melting point was 181 to 183 °C. In the case of `N#Cc1cccc(CN2CCN(c3ccc(NC(=O)c4ccccc4-c4ccccc4)cc3)CC2)c1` (hydrate or solvate) [Example 11, Biphenyl-2-carboxylic acid (4-[4-(3-cyano-benzyl)-piperazin-1-yl]-phenyl]-amide], the melting point is reported as 169 to 171 °C. Compound `O=C(Nc1ccc(N2CCN(Cc3cnccn3)CC2)cc1)c1ccccc1-c1ccc(C(F)(F)F)cc1` [Example 58, 4′-Trifluoromethyl-biphenyl-2-carboxylic acid [4-(4-pyrazin-2-ylmethyl-piperazin-1-yl)-phenyl]-amide] has a melting point of 183 to 185 °C. For `CCc1ccc(-c2ccccc2C(=O)Nc2ccc(N3CCN(Cc4cccc(C#N)c4)CC3)cc2)cc1`, the melting point was 118 to 122 °C. Work on `Cn1ccnc1CN1CCN(c2ccc(NC(=O)c3ccccc3-c3ccc(C(F)(F)F)cc3)cc2)CC1` [Example 60, 4′-Trifluoromethyl-biphenyl-2-carboxylic acid [4-[4-(1-methyl-1H-imidazol-2-ylmethyl)-piperazin-1-yl)-phenyl]-amide] yielded a melting point of 118 to 120 °C. Work on `COc1ccc(-c2ccc(C(F)(F)F)cc2)c(C(=O)Nc2ccc(N3CCN(Cc4cccc(C#N)c4)CC3)cc2)c1` yielded a melting point of 151 to 155 °C. `N#Cc1cccc(CN2CCN(c3cccc(NC(=O)c4ccccc4-c4ccc(C(F)(F)F)cc4)c3)CC2)c1` [Example 36, 4′-Trifluoromethyl-biphenyl-2-carboxylic Acid [3-[4-(3-cyano-benzyl)-piperazin-1-yl]-phenyl]-amide] gave a melting point of 170 to 172 °C. `O=C(CN1CCN(c2ccc(NC(=O)c3ccccc3-c3ccc(C(F)(F)F)cc3)cc2)CC1)NCc1cccc(-c2ccccc2)c1` [Example 77, 4′-Trifluoromethyl-biphenyl-2-carboxylic Acid [4-(4{[(biphenyl-3-ylmethyl)-carbamoyl]-methyl}piperazin-1-yl)-phenyl]-amide] showed a melting point of 165 to 167 °C. With `O=C(Nc1ccc(N2CCN(Cc3cccc(F)c3)CC2)cc1)c1ccccc1-c1ccc(C(F)(F)F)cc1` (hydrate or solvate) the melting point was 189 to 190.5 °C. In the case of `Cc1cccc(C(=O)Nc2ccc(N3CCN(CC(N)=O)CC3)cc2)c1-c1ccc(C(F)(F)F)cc1` [Example 40, 6-Methyl-4′-trifluoromethyl-biphenyl-2-carboxylic acid [4-(4-carbamoylmethyl-piperazin-1-yl)-phenyl]-amide], the melting point is reported as 196 to 198 °C. Work on `CCCN1CCN(c2ccc(NC(=O)c3ccccc3-c3ccc(C(F)(F)F)cc3)cc2)CC1` [Example 65, 4′-Trifluoromethyl-biphenyl-2-carboxylic acid [4-(4-propyl-piperazin-1-yl)-phenyl]-amide] yielded a melting point of 207 to 209 °C. Compound `O=C(Nc1ccc(N2CCN(Cc3c[nH]c4ccc(F)cc34)CC2)cc1)c1ccccc1-c1ccc(C(F)(F)F)cc1` [Example 73, 4′-Trifluoromethyl-biphenyl-2-carboxylic acid {4-[4-(5-fluoro-1H-indol-3-ylmethyl)-piperazin-1-yl]-phenyl}-amide] has a melting point of 168 to 170 °C. In the case of `Cc1ccc(-c2ccccc2C(=O)Nc2ccc(N3CCN(Cc4cccc(C#N)c4)CC3)cc2)cc1C`, the melting point is reported as 140 to 144 °C. `COc1ccc(C(=O)Nc2ccc(N3CCN(Cc4cccc(C#N)c4)CC3)cc2)c(-c2ccccc2)c1` [Example 12, 5-Methoxy-biphenyl-2-carboxylic acid [4-[4-(3-cyano-benzyl)-piperazin-1-yl]-phenyl]-amide] gave a melting point of 159 to 161 °C.
